This is an account of results in article PMC12396409, “Screening and hit evaluation of a microbial metabolite library against the pathogenic Plasmodium falciparum and Toxoplasma gondii parasites” (International Journal for Parasitology: Drugs and Drug …, 2025).

SMILES strings stand for the structures. Read-outs that look alike come from different tables or passages of the source.

Experiment [1] has as its system P. falciparum 3D7 parasites. The experiment is described as follows: P. falciparum growth inhibition assay, 2-cycle (120 h treatment), delayed-death screen and dose-response. It is filed as cell-based, Plasmodium falciparum. Particulars: for activity at 2 µg/mL: Plasmodium falciparum.
Experiment [2] deals with T. gondii RH strain (RH-Tub-eYFP) tachyzoites. The experiment in a line: microbe, parasite or virus in culture. Particulars: 72 h, 72 h; for percent parasite growth at 2 µg/mL: Toxoplasma gondii. In kind it is cell-based, Toxoplasma gondii.
Experiment [3] deals with P. falciparum 3D7 parasites. The experiment in a line: P. falciparum growth inhibition assay, 1-cycle (72 h treatment), SYBR DNA staining (library screen at 2 μg/mL and dose-response). It is filed as cell-based, Plasmodium falciparum. The following applies: for activity at 2 µg/mL: Plasmodium falciparum.
The mark [4] stands for this setting: 3D7, library screen at 2 μg/mL, 120 h, % growth, replicate 1, read-out: Pf_120h_%Growth_Rep1.
The mark [5] stands for this setting: 3D7, library screen at 2 μg/mL, 120 h, % growth, replicate 2, read-out: Pf_120h_%Growth_Rep2.
Where [6] appears, read: library screen at 2 μg/mL, % growth, replicate 1, read-out: Tg_72h_%Growth_Rep1.
The mark [7] stands for this setting: library screen at 2 μg/mL, % growth, replicate 2, read-out: Tg_72h_%Growth_Rep2.
The mark [8] stands for this setting: 3D7, library screen at 2 μg/mL, 72 h, % growth, replicate 1, read-out: Pf_72h_%Growth_Rep1.
Where [9] appears, read: 3D7, library screen at 2 μg/mL, 72 h, % growth, replicate 2, read-out: Pf_72h_%Growth_Rep2.
[10] abbreviates: 3D7, P. falciparum, 120 h, screen at 2 μg/mL, replicate 1, read-out: Pf_120h_%Growth_Rep1.
[11] abbreviates: 3D7, P. falciparum, 120 h, screen at 2 μg/mL, replicate 2, read-out: Pf_120h_%Growth_Rep2.
Where [12] appears, read: T. gondii, screen at 2 μg/mL, replicate 1, read-out: Tg_72h_%Growth_Rep1.
Setting [13] is: T. gondii, screen at 2 μg/mL, replicate 2, read-out: Tg_72h_%Growth_Rep2.
The mark [14] stands for this setting: 3D7, P. falciparum, 72 h, screen at 2 μg/mL, replicate 1, read-out: Pf_72h_%Growth_Rep1.
Setting [15] is: 3D7, P. falciparum, 72 h, screen at 2 μg/mL, replicate 2, read-out: Pf_72h_%Growth_Rep2.

For `Cc1cc(O)c2c3c4c(cc(O)c13)C(C)(C)C(=O)c1c(O)cc(O)c(c1-4)C2=O` [Resistomycin], the activity at 2 µg/mL stood at 78.2% in experiment [1] (3D7, 120 h, P. falciparum, 120 h, parasite screen 2 μg/mL, % growth, replicate 1, read-out: Pf_120h_%Growth_Rep1); 130% in experiment [1] (3D7, 120 h, P. falciparum, 120 h, parasite screen 2 μg/mL, % growth, replicate 2, read-out: Pf_120h_%Growth_Rep2); 82% in experiment [3] (3D7, 72 h, P. falciparum, 72 h, parasite screen 2 μg/mL, % growth, replicate 1, read-out: Pf_72h_%Growth_Rep1); 102% in experiment [3] (3D7, 72 h, P. falciparum, 72 h, parasite screen 2 μg/mL, % growth, replicate 2, read-out: Pf_72h_%Growth_Rep2). In addition, the percent parasite growth at 2 µg/mL in experiment [2] (T. gondii, parasite screen 2 μg/mL, % growth, replicate 1, read-out: Tg_72h_%Growth_Rep1) amounted to 221%; in experiment [2] (T. gondii, parasite screen 2 μg/mL, % growth, replicate 2, read-out: Tg_72h_%Growth_Rep2), 125%.

Consider `C[C@H]1C(=O)N2c3ccccc3[C@@]3(O)C[C@@H]4C(=O)N[C@](C)(c5nc6ccccc6c(=O)n54)N1[C@@H]23` [Fumiquinazoline D], for which the activity at 2 µg/mL in experiment [1] (setting [4]) was 80.2%; in experiment [1] (setting [5]) it was 101%; in experiment [3] (setting [8]), 76.9%; in experiment [3] (setting [9]) it was 108%. In addition, the percent parasite growth at 2 µg/mL in experiment [2] (setting [6]) is 124%; in experiment [2] (setting [7]), 109%.

As to `CO[C@H]1C[C@@H]2CC[C@@H](C)[C@@](O)(O2)C(=O)C(=O)N2CCCC[C@H]2C(=O)O[C@H]([C@H](C)C[C@@H]2CC[C@H](n3cnnn3)[C@H](OC)C2)CC(=O)[C@H](C)/C=C(\C)[C@@H](O)[C@@H](OC)C(=O)[C@H](C)C[C@H](C)/C=C/C=C/C=C/1C` [Zotarolimus], the activity at 2 µg/mL stood at 97.5% in experiment [1] (setting [10]), 77.1% in experiment [1] (setting [11]), 75.7% in experiment [3] (setting [14]) and 88.3% in experiment [3] (setting [15]). The percent parasite growth at 2 µg/mL in experiment [2] (setting [12]) is 120%; in experiment [2] (setting [13]) it was 77.8%.

`CCC(C)C1OC2(CCC1C)CC1CC(CC=C(C)C(O)C(C)C=CC=C3COC4C(O)C(C)=CC(C(=O)O1)C34O)O2` (centres unmarked) [BIA-I1151] displayed a Pf_120h_%Growth_Rep1 in experiment [1] (P. falciparum 3D7, 120 h, library screen at 2 μg/mL, % growth, replicate 1) of 87.69%. The same compound registered a Pf_120h_%Growth_Rep2 in experiment [1] (P. falciparum 3D7, 120 h, library screen at 2 μg/mL, % growth, replicate 2) of 91.70%. In experiment [2] (T. gondii RH, library screen at 2 μg/mL, % growth, replicate 1), this compound displayed a Tg_72h_%Growth_Rep1 of 121.58%. This compound yielded a Tg_72h_%Growth_Rep2 in experiment [2] (T. gondii RH, library screen at 2 μg/mL, % growth, replicate 2) of 95.56%. Further, the Pf_72h_%Growth_Rep1 in experiment [3] (P. falciparum 3D7, 72 h, library screen at 2 μg/mL, % growth, replicate 1) was determined as 82.86%. Besides, the Pf_72h_%Growth_Rep2 in experiment [3] (P. falciparum 3D7, 72 h, library screen at 2 μg/mL, % growth, replicate 2) amounted to 77.78%.

`C/C=C/C1=CC(=O)[C@@H](O)[C@@H]1O` [Terrein]: the activity at 2 µg/mL in experiment [1] (setting [10]) amounted to 82%; in experiment [1] (setting [11]), 46.1%; in experiment [3] (setting [14]), 77.7%; in experiment [3] (setting [15]), 91.3%. The percent parasite growth at 2 µg/mL amounted to 125% in experiment [2] (setting [12]) and 83.6% in experiment [2] (setting [13]).

`CC[C@]1(C)C[C@@H](OC(=O)CO)C2(C)[C@H](C)CCC3(CCC(=O)[C@H]32)[C@@H](C)[C@@H]1O` (some centres unmarked) [Dihydropleuromutilin] returned a Pf_120h_%Growth_Rep1 in experiment [1] (library screen at 2 μg/mL, 120 h, % growth, replicate 1) of 42.82%. The compound also yielded a Pf_120h_%Growth_Rep2 in experiment [1] (library screen at 2 μg/mL, 120 h, % growth, replicate 2) of 51.71%. Also, in experiment [2] (library screen at 2 μg/mL, % growth, replicate 1), the Tg_72h_%Growth_Rep1 came to 80.68%. In experiment [2] (library screen at 2 μg/mL, % growth, replicate 2), the Tg_72h_%Growth_Rep2 came out at 63.68%. Further, the “Screen (T. gondii)” value in experiment [2] (library screen at 2 μg/mL, RH strain) is listed as “I, I”. Further, the “Screen (P. falciparum)” value in experiment [3] (library screen at 2 μg/mL, 3D7, 72 h, DD from the 120 h timepoint) is “I, I”. For the same compound, the Pf_72h_%Growth_Rep1 in experiment [3] (library screen at 2 μg/mL, 72 h, % growth, replicate 1) was 84.27%. In experiment [3] (library screen at 2 μg/mL, 72 h, % growth, replicate 2), this compound displayed a Pf_72h_%Growth_Rep2 of 76.59%.

Turning to `[N-]=[N+]=NCC(=O)N[C@H](CO)[C@H](O)c1ccc([N+](=O)[O-])cc1` [Azidamfenicol], the activity at 2 µg/mL was 64.6% in experiment [1] (setting [4]), 95.3% in experiment [1] (setting [5]), 82.7% in experiment [3] (setting [8]) and 84.9% in experiment [3] (setting [9]). Also, the percent parasite growth at 2 µg/mL in experiment [2] (setting [6]) was found to be 129%; in experiment [2] (setting [7]), 103%.

Turning to `CC(=O)O[C@H]1C[C@]2(C)[C@H]3CC[C@]4(C)Oc5oc(C)cc(=O)c5C[C@H]4[C@]3(C)CC[C@H]2C(C)(C)[C@H]1OC(C)=O` [Sartorypyrone B], the Pf_120h_%Growth_Rep1 in experiment [1] (P. falciparum, 120 h, parasite screen 2 μg/mL, % growth, replicate 1) came out at 68.83%. The Pf_120h_%Growth_Rep2 in experiment [1] (P. falciparum, 120 h, parasite screen 2 μg/mL, % growth, replicate 2) was 125.68%. Also, the Tg_72h_%Growth_Rep1 in experiment [2] (T. gondii, parasite screen 2 μg/mL, % growth, replicate 1) came out at 114.72%. For the same compound, the Tg_72h_%Growth_Rep2 in experiment [2] (T. gondii, parasite screen 2 μg/mL, % growth, replicate 2) worked out at 87.54%. The Pf_72h_%Growth_Rep1 in experiment [3] (P. falciparum, 72 h, parasite screen 2 μg/mL, % growth, replicate 1) was determined as 77.80%. This compound also displayed a Pf_72h_%Growth_Rep2 in experiment [3] (P. falciparum, 72 h, parasite screen 2 μg/mL, % growth, replicate 2) of 111.47%.
